Results from patent publication US10292994B2, “Bioactive fractions and compounds from Dalbergia sissoo for the prevention or treatment of osteo-health related disorders” (Council of Scientific & Industrial Research, priority 2011, dated 2019).
Marks after values point to notes of the source that are not given here. Blank lines part the entries; values can stand above or below the compound they belong to.

Assays:
Calvarial osteoblasts = experiment: Osteoblast alkaline phosphatase (ALP) activity; type: cell-based, rat; settings: for ALP activity: calvarial osteoblasts, 10 days culture, FIG. 6
Procedure: (§1) Neonatal rat calvarial cell cultures are prepared as described previously (Chattopadhyay et al., Endocrinology 145:3451-62, 2004) using slight modification. Briefly, for calvarial osteoblast cultures, frontal and parietal bones from neonatal Sprague-Dawley rats (1-3 day old) were digested in 0.1% collagenase/0.1% dispase in α-MEM to obtain 5 sequential digests. The second through fifth digests are combined and grown to confluence at 37° C. and 5% CO2 in air in α-MEM, supplemented with 10% fetal bovine serum (FBS), 2 mM glutamine, 100 U/ml penicillin-streptomycin, non-essential amino acid solution and sodium pyruvate. These osteoblast cells were further used to test thirteen pure compounds designated as 1-13. During the course of culture, pre-osteoblasts undergo three characteristic stages of osteoblasts with the expression of stage specific genes. These are: • Proliferation & differentiation: Days 1-12 • Genes—cbfa1, Osterix, Alkaline phosphatase, • Collagen-1 • Extra-cellular matrix maturation: Days 12-18 • Genes—Osteocalcin, Osteopontin, Fibronectin • Mineralization: Days 14-35 • Feature—Calcification (nodule formation) Measurement of Osteoblast Alkaline Phosphatase (ALP) Activity
Calvarial osteoblasts cells were plated (1500 cells/well in 12 well plate) in the osteoblast differentiation medium and the culture was continued for 10 days with or without treatment with these compounds. This is the time when the ALP levels peak, and serves as an osteoblast differentiation marker. The cells at this point were washed twice with PBS and then plates were fixed by keeping them at −70° C. for 1 h, and then brought to room temperature to determine ALP activity. The rate of the reaction here is directly proportional to the enzyme activity, which itself is proportional to osteoblast differentiation. The O.D. was measured at 405 nm with a microplate reader.

Osteoblasts = experiment: Osteoblast growth / toxicity (MTT); type: cell-based, rat; settings: FIG. 8; for growth / proliferation of the osteoblastic cells: 1 pM to 1 μM, 48 h
Procedure: as §1, with “Briefly,” for “Neonatal rat calvarial cell cultures are prepared as described previously (Chattopadhyay et al., Endocrinology 145:3451-62, 2004) using slight modification. Briefly,”
Many isoflavonoids at micromolar concentrations are known to inhibit osteoblast cell growth. Osteoblasts were cultured in the absence or presence of compounds (dissolved in 0.01% DMSO final concentration) at various concentrations (1 pM to 1 μM) for 48 h. Cells receiving vehicle (0.01% DMSO) served as control. After incubation, the cells were washed with PBS. Then, cells were treated with MTT solution (5 mg/10 mL in DMEM devoid of Phenol Red) for 4 h. Formazon crystals formed were dissolved in DMSO and O.D. was taken at 540 nm.

[1] = test system: bone morphogenetic protein (BMP-2); experiment: In vivo osteogenic efficacy: BMP-2 expression in calvaria by qPCR; set-up: species or system rat; settings: calvaria of 1- to 2-day-old rats, 5.0 mg·kg−1·day−1 s.c. for 3 consecutive days, fold change over vehicle/untreated, FIG. 7
Description: The results are expressed as fold change over untreated cells (FIG. 7).

[2] = test system: ovariectomized Balb/c mice; experiment: μCT trabecular microarchitecture after 8 weeks treatment of osteopenic OVx mice; type: in vivo, mouse; set-up: Tb. Th. / Tb. Sp.: unit not given here; settings: for SMI / Tb. No. / Tb. Sp. / Tb. Th. / BV/TV: 8 weeks; for BV/TV: osteopenic OVx mice, mean ± S.D.
Procedure: The study was conducted in accordance with current legislation on animal experiments [Institutional Animal Ethical Committee (IAEC)] at C.D.R.I. Balb/c mice weighing ˜25-30 gm were either bilaterally ovariectomized (OVx) or exposed to a sham surgical procedure. After ovariectomy, mice were left for 30 days for osteopenia to develop. Mice were individually housed at 21° C., in 12-h light:12-h dark cycles. All mice had excess to normal chow diet and water ad libitum. […], treatment in the form of gavage (1.0 mg and 5.0 mg/kg body weight) was given daily. Equal numbers of OVx and sham operated mice served as the control, and were given vehicle. At the end of 8 weeks, mice were euthanized. At autopsy, both femur and tibia were dissected and separated from adjacent tissue, cleaned, and used for μCT measurements.

[3] = test system: bone marrow stromal cells; experiment: Mineralization of bone marrow stromal cells of estrogen deficient rats; type: in vivo, rat; settings: estrogen deficient (OVx) rats vs OVx rats treated with vehicle; estrogen 2.5 μg/kg
[4] = test system: ovariectomized (OVx) Sprague Dawley rats; experiment: μCT trabecular microarchitecture after 12 weeks treatment of OVx rats; type: in vivo, rat; settings: for SMI / Tb. No. / Tb. Sp. / Tb. Th.: estradiol 2.5 μg·kg−1·day−1; for BV/TV: estradiol 2.5 μg·kg−1·day−1, mean ± S.D.
Procedure: The study was conducted in accordance with current legislation on animal experiments [Institutional Animal Ethical Committee (IAEC)] at C.D.R.I. […] Sprague Dawley rats weighing 180-200 gm were either bilaterally ovariectomized (OVx) or exposed to a sham surgical procedure. All rats were individually housed at 21° C., in 12-h light:12-h dark cycles. All rats had excess to normal chow diet and water ad libitum. After OVx, the rats were left for 12 weeks to develop osteopenia. […] Equal numbers of OVx and sham operated rats served as the control, and were given vehicle (20% ethanol). The rats were weighed each week. […] After twenty-four hours of fasting urine samples were collected in fresh containers, centrifuged at 2000 rpm at room temperature and stored at -20° C. until analyzed. Rats were then euthanized. At autopsy, blood samples were collected by cardiac puncture in tubes, and serum samples collected and frozen until analysis. Uteri were carefully excised, gently blotted, weighed, and fixed for histology and histomorphometry. About 5 mm pieces from the middle segment of each uterus were dehydrated in ascending grades of ethanol, cleared in xylene, and embedded in paraffin wax using standard procedures. Representative transverse sections (5 μm) were stained with H&E stain. Photomicrographs of sections were obtained using a Leica DC 300 camera and Leica IM50 Image Acquisition software fitted to a Leica DMLB microscope. Histomorphometric measurements were done using Leica Qwin-Semiautomatic image Analysis software. μCT (both 2-D and 3-D) determination of excised bones was carried out using the Sky Scan 1076 μCT scanner (Aartselaar, Belgium) using the cone-beam reconstruction software version 2.6 based on the Feldkamp algorithm (Skyscan). The bone marrow was harvested for ex vivo experiments. Both femora were dissected and separated from adjacent tissue, cleaned, and used for RNA isolation and also micro measurements. Trabecular response to A-4744/[…] treatment of OVx rats was quantified at the femur epiphysis and tibial proximal metaphysis.

[5] = femur, OVx mice, 1 mg · kg^-1 · day^-1
[6] = femur, OVx mice, 5 mg · kg^1 · day^1
[7] = tibia, OVx mice, 1 mg · kg^-1 · day^-1
[8] = tibia, OVx mice, 5 mg · kg^1 · day^1

ALP activity (Calvarial osteoblasts): significantly increased
Compound: COc1ccc(-c2coc3cc(O)cc(O)c3c2=O)cc1 [Compound 1, Biochanin A]
growth / proliferation of the osteoblastic cells (Osteoblasts): proliferation

ALP activity (Calvarial osteoblasts): significantly increased
Compound: COc1cc(-c2coc3cc(O)cc(O)c3c2=O)ccc1O [Compound 3, Pratensein or 3′-methoxygenistein]
growth / proliferation of the osteoblastic cells (Osteoblasts): proliferation

Compound: O=c1c(-c2ccc(O)cc2)coc2cc(O)cc(O)c12 [Compound 4, Genstein]
ALP activity (Calvarial osteoblasts): significantly increased
increase in BMP-2 expression [1]: 5 fold
growth / proliferation of the osteoblastic cells (Osteoblasts): proliferation

ALP activity (Calvarial osteoblasts): significantly increased
melting point: 206 to 208 °C
Compound: COc1ccc(-c2coc3cc(O[C@@H]4OC(CO)[C@@H](O)[C@H](O)C4O)cc(O)c3c2=O)cc1 (stereo partly drawn) [Compound 6, Biochanin 7-O-glycoside]
growth / proliferation of the osteoblastic cells (Osteoblasts): proliferation

ALP activity (Calvarial osteoblasts): significantly increased
melting point: 135 to 138 °C
Compound: COc1cc(OC)c(-c2coc3cc(O[C@@H]4OC(COC5OCC(O)(CO)C5O)[C@@H](O)C(O)C4O)c(OC)c(O)c3c2=O)cc1OC (stereo partly drawn) [Compound 10]
increase in osteoblast differentiation over the control, assessed by ALP production (Calvarial osteoblasts; over the control, listed as Caviunin 7-O-[β-D-apiofuranosyl-(1→6)-β-D-glucopyranoside]): > 1.0 fold
increase in BMP-2 expression [1]: 15 fold
growth / proliferation of the osteoblastic cells (Osteoblasts): proliferation
toxicity to the cells (Osteoblasts; osteoblasts, 1 pM to 1 μM for 48 h, vs vehicle control): not toxic
trabecular bone in tibia metaphysis ([2]; OVx mice): significantly restored
Tb.sp and SMI ([2]; femur epiphysis of OVx mice compared to OVx+vehicle mice): increased
BV/TV, Tb.Th and Tb.N ([2]; femur epiphysis of OVx mice compared with OVx+vehicle group): increased
SMI [2, 5]: 1.992 ± 0.0382
Tb. No. [2, 5]: 0.588 ± 0.034
Tb. Sp. [2, 5]: 0.529 ± 0.022
Tb. Th. [2, 5]: 0.069 ± 0.002
SMI [2, 6]: 1.615 ± 0.0434***^a
Tb. No. [2, 6]: 0.759 ± 0.061***^b
Tb. Sp. [2, 6]: 0.502 ± 0.023 ^
Tb. Th. [2, 6]: 0.070 ± 0.001 ^
BV/TV ([2]; femur, 1 mg · kg^-1 · day^-1): 4.10 ± 0.253 %
BV/TV ([2]; femur, 5 mg · kg^1 · day^1): 5.54 ± 0.739***^a %
SMI [2, 7]: 2.46 ± 0.051
Tb. No. [2, 7]: 0.222 ± 0.018
Tb. Sp. [2, 7]: 0.690 ± 0.013
Tb. Th. [2, 7]: 0.064 ± 0.0015
SMI [2, 8]: 2.43 ± 0.072
Tb. No. [2, 8]: 0.266 ± 0.014
Tb. Sp. [2, 8]: 0.671 ± 0.040
Tb. Th. [2, 8]: 0.065 ± 0.001
BV/TV ([2]; tibia, 1 mg · kg^-1 · day^-1): 1.67 ± 0.086 %
BV/TV ([2]; tibia, 5 mg · kg^1 · day^1): 1.701 ± 0.120 %
mineralization of the bone marrow stromal cells [3]: significantly greater mineralization

Compound: C[C@]12CC[C@@H]3c4ccc(O)cc4CC[C@H]3[C@@H]1CC[C@@H]2O [ESTRADIOL (E2), Estradiol]
SMI ([4]; femur): 2.41 ± 0.13
Tb. No. ([4]; femur): 0.725 ± 0.024
Tb. Sp. ([4]; femur): 0.86 ± 0.004
Tb. Th. ([4]; femur): 0.78 ± 0.01
BV/TV ([4]; femur): 59.23 ± 30.19 %
SMI ([4]; tibia): 2.24 ± 0.021
Tb. No. ([4]; tibia): 0.30 ± 0.02
Tb. Sp. ([4]; tibia): 1.29 ± 0.029
Tb. Th. ([4]; tibia): 0.10 ± 0.004
BV/TV ([4]; tibia): 3.04 ± 0.24 %
mineralization of the bone marrow stromal cells [3]: unable to increase mineralization
